The target of one test is complementary peptide. Kind of test: Isothermal titration calorimetry (ITC) of orthogonal CC peptide pairs. Format: binding. Conditions: 50 mM Tris pH 7.5, 150 mM NaCl, 1 mM TCEP, uncertainty from Monte Carlo simulation of the fit. Here is the method:
MicroCal PEAQ-ITC (Malvern) was used to measure the equilibrium dissociation constant (Kd) of orthogonal CC pairs. A 40-µl injection syringe was filled with the peptide solution (1 mM P5f, P13f; 5.6 mM S1h or 5.4 mM S3h) in 50 mM Tris pH of 7.5, 150 mM NaCl, and 1 mM TCEP. The samples were injected into an ITC cell (volume 200 µl) filled with a complementary peptide (100 µM P6f or P14f and 560 µM S2h or 540 µM S4h) in a matching buffer through a 19-step process. The injection volumes were 2 µl and were spaced 120 s apart, except for the first priming injection of 0.4 µl with 150 s spacing. Raw thermograms were integrated with the software NITPIC[83], interaction analysis was done with SEDPHAT[84], and titration curves were visualized with a companion GUSSI software. Monte Carlo simulation for non-linear regression, aligning the model function with experimental values 1000 times was used to obtain uncertainties in the fitted model.
Supplementary Figure 2: Binding analysis between the weak 3-heptad and strong 4-heptad CC forming segment using isothermal titration calorimetry (ITC). a) For peptide pair S1h + S2h peptide concentration in 40 µl injection syringe was 5.6 mM for S1h and concentration of complementary peptide S2h in ITC cell (volume 200 µl) was 560 […]
concentration in 40 µl injection syringe was 5.4 mM S3h and concentration of complementary peptide S4h in ITC cell (volume 200 µl) was 540 µM.
± 0.5 kcal/mol. For peptide pair c) P5f + P6f and d) P13f + P14f, which are 4-heptad CC.
Peptide concentration in 40 µl injection syringe was 1 mM for P5f and P13f and concentration […]
± 0.5 µM and ΔH -13.7 +- 0.6 kcal/mol and d) Kd 2.3 ± 0.2 µM and ΔH -14.7 ± 0.6 kcal/mol.
All the peptides were dissolved in a matching buffer 50 mM Tris pH of 7.5, 150 mM NaCl, […]
(1 picture or pasted object on this page, not shown here)

For test [1], the system named is FKBP/FRB. Put plainly: Rapamycin-induced assembly of single-chain condensates from FKBP/FRB-fused APPAP halves, HEK293T cells. Format: cell-based, H.sapiens. Particulars: 1 μM rapamycin; HEK293T cells expressing Cit-APPAP-gs-FKBP and FRB-APPAP-gs; none with DMSO even 1 hour post-addition. The text has this:
(§1) Our final goal was to engineer new properties into condensates and to provide regulation of CC-LLPS assembly or disassembly. […] To introduce chemically regulated assembly, we incorporated FKBP into the first chain and FRB domain into the second chain of the split protein. Upon the addition of rapamycin, those two domains heterodimerize and thus extend the length of the polypeptide.
(§2) Fig. 6 Design of chemical regulation of CC-LLPS. a One polypeptide chain of a condensate-forming pair BFP-(S2)3(S4)3-gs, was separated into two chains, each with 3 CC domains BFP-(S2)3-gs and (S4)3-gs. […] Scale bars, 10 μm.

The subject of test [2] is FKBP/FRB. Put plainly: Rapamycin-regulated split TEVp protease dissolution of condensates, HEK293T cells. Format: cell-based, H.sapiens. Conditions: 1 μM rapamycin; HEK293T cells with TEVp site in one condensate-forming chain and rapamycin-regulated split TEVp.
Excerpt: as §2

The subject of test [3] is FKBP/FRB. Kind of test: Rapamycin-induced condensate assembly, split two-chain system with FKBP and FRB domains, NIH-3T3 cells. Format: cell-based, H.sapiens. Particulars: 1 μM rapamycin; NIH-3T3 cells expressing Cit(S1-S3)3-SAH, BFP(S2)3-gsFKBP and FRB(S4)3-gs; none with vehicle control.
Excerpt: as §1, §2

In a further test the target is T1, P14f.
T1 chain: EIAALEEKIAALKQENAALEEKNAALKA
Kind of test: ITC; MicroCal PEAQ-ITC; syringe peptide (1 mM P5f, P13f; 5.6 mM S1h or 5.4 mM S3h) injected into the cell with the complementary peptide (100 µM P6f or P14f; 560 µM S2h or 540 µM S4h); 50 mM Tris pH 7.5, 150 mM NaCl, 1 mM TCEP; concentrations of the S peptides not stated. Particulars: both partners purified. For orientation: ITC needs no label: the signal is the heat of the interaction.

The next test addresses T2, P6f.
T2 chain: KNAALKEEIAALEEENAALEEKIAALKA
Described as above. Particulars: both partners purified.

The next test has as its target T3, S4h.
T3 chain: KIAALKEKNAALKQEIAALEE
The description is as above. Conditions: both partners purified.

For another test, the target named is T4, S2h.
T4 chain: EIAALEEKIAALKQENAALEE
Described as above. Conditions: both partners purified.

The mark [4] stands for this setting: 4-heptad pairs, 1 mM P5f or P13f in syringe into 100 µM P6f or P14f in cell.
Where [5] appears, read: 3-heptad Sh pairs, 5.6 mM S1h or 5.4 mM S3h in syringe into 560 µM S2h or 540 µM S4h in cell.

No end group written: not given here.

Broadly, the Kd is a measure of binding affinity in units of concentration. High values mean weaker binding, low ones tighter binding. Regarding “KIAALKEEIAALEQKNAALKEENAALEA [P13f-P14f]”, the Kd at complementary peptide (setting [4]) is 2.3 ± 0.2 µM. As to KIAALKEEIAALEQKNAALKE [S1h-S2h], at complementary peptide (setting [5]), binding was put at a Kd of 2300 ± 1500 µM. At complementary peptide (setting [5]), EIAALEEENAALEQKIAALKE [S3h-S4h] showed a Kd of 340 ± 70 µM. Turning to `CO[C@H]1C[C@@H]2CC[C@@H](C)[C@@](O)(O2)C(=O)C(=O)N2CCCC[C@H]2C(=O)O[C@H]([C@H](C)C[C@@H]2CC[C@@H](O)[C@H](OC)C2)CC(=O)[C@H](C)/C=C(\C)[C@@H](O)[C@@H](OC)C(=O)[C@H](C)C[C@H](C)/C=C/C=C/C=C/1C` [rapamycin, Rapamycin], the “condensate formation after addition (in words)” value in the test on FKBP/FRB [1] is on record as “after a few minutes”. In addition, the “dissolution of condensates after addition (in words)” value in the test on FKBP/FRB [2] was “dissolution of condensates after a few minutes”. Further, the “time after addition at which condensates started to form” value with FKBP/FRB [3] was 20 min. For the molecule ENAALEEKIAALKEKNAALKEEIAALEA [P5f-P6f], the affinity at complementary peptide (setting [4]), expressed as Kd, was 5.9 ± 0.5 µM.

B1: P13f (peptide)
chain: KIAALKEEIAALEQKNAALKEENAALEA
On to B1, for which the Kd with P14f is 2.3 ± 0.2 µM.

B2: P5f (peptide)
chain: ENAALEEKIAALKEKNAALKEEIAALEA
Regarding B2, in the test with P6f, binding was put at a Kd of 5.9 ± 0.5 µM.

B3: S3h (peptide)
chain: EIAALEEENAALEQKIAALKE
With B3, in the test with S4h, the Kd was 340 ± 70 µM.

B4: S1h (peptide)
chain: KIAALKEEIAALEQKNAALKE
B4 registered a Kd in the test with S2h of 2300 ± 1500 µM.

The record behind these values is PMC10693550, “Programmable de novo designed coiled coil-mediated phase separation in mammalian cells” (Nature Communications, 2023).
